Earlier results, collected in patent publication US20240209053A1 (Protagonist Therapeutics, Inc., priority 2021, published 2024).

Target: T1, ferroportin fused to green fluorescent protein (Mus musculus, UniProt Q9JHI9)
T1 sequence (Q9JHI9 1-570): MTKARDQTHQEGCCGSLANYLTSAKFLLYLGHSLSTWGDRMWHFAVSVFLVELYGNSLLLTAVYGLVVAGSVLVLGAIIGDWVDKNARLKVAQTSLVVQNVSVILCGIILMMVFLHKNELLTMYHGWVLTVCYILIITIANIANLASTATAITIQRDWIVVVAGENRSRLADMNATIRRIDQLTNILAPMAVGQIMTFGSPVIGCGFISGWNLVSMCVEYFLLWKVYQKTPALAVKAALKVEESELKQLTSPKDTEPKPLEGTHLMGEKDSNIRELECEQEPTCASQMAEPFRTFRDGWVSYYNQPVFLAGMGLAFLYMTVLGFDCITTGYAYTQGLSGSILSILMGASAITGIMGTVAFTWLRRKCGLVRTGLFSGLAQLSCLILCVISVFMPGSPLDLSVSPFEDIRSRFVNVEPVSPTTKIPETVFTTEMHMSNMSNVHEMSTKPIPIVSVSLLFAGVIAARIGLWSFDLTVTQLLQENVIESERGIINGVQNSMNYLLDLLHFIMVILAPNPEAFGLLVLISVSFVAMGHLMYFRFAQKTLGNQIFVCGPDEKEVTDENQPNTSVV
Details: read-out: EC50 (50% of maximal loss of fluorescence); cells incubated 24 hours; reference preparations of Hep25; cited from earlier work

CC[C@H](C)[C@@H]1NC(=O)[C@@H](NC(=O)[C@@H](NC(=O)[C@@H]2CCCN2C(=O)[C@H](Cc2ccccc2)NC(=O)[C@H](Cc2c[nH]cn2)NC(=O)[C@@H](NC(=O)[C@@H](N)CC(=O)O)[C@@H](C)O)[C@@H](C)CC)CSSC[C@@H](C(=O)N[C@@H](CCCCN)C(=O)N[C@H](C(=O)O)[C@@H](C)O)NC(=O)[C@@H]2CSSC[C@@H]3NC(=O)[C@@H]4CSSC[C@H](NC(=O)[C@H](Cc5ccccc5)NC1=O)C(=O)N[C@@H](CSSC[C@H](NC(=O)[C@H](CCCCN)NC(=O)[C@H](CO)NC(=O)[C@H](CCCNC(=N)N)NC(=O)[C@H](Cc1c[nH]cn1)NC3=O)C(=O)NCC(=O)N[C@@H](CCSC)C(=O)N2)C(=O)NCC(=O)N4 [Hepcidin, Hy-DTHFPIC(1)IFC(2)C(3)GC(2)C(4)HRSKC(3)GMC(4)C(1)KT-OH]
EC50: 5 to 15 nM
